From publication PMC11350846, “Synthesis of Second-Generation Analogs of Temporin-SHa Peptide Having Broad-Spectrum Antibacterial and Anticancer Effects” (Antibiotics, 2024)
Where a SMILES comes first, the peptide text is derived from it. [ ]: non-standard residue; d: D form.

Assays:
[1] = test system: human cancer and normal/non-cancerous cells; format: cell-based; conditions: cancer or normal cells, except breast cancer MCF-7 cells; read-out: IC50, cancer or normal cell proliferation
Description: (§1) The antiproliferative activity of the peptides was evaluated, as previously described using human cancer cell lines (A549 (lung), A2780 (ovary), HepG-2 (liver), MCF-7 (breast), MiaPaCa-2 (pancreas), MNT-1 (skin), and PC-3 (prostate)) and normal human lung fibroblasts (IMR-90) or epithelial cells (BEAS-2B). The cells were cultured in DMEM supplemented with 10% FBS, 1% L-glutamine, and 1% antibiotics at 37 °C in a 5% CO2 incubator. For the antiproliferative assay, cells were seeded in 96-well plates at approximately 3000 cells/well. Twenty-four hours later, cells were treated with increasing concentrations of peptides (1:2 serial dilution from 100 µM to 0 µM) for 48 h. After treatment, the number of viable cells was determined using a resazurin-based assay, and the fluorescence intensity was measured with a microplate reader (Ex 530 nm/Em 590 nm). The IC50 values of the peptides (i.e., the concentrations causing 50% inhibition of cell proliferation) were determined using GraphPad® Prism 7 software. The experiments were performed in triplicate (n = 3). The cytotoxicity of the peptides was also evaluated using confluent/no-dividing cells, as previously described. Briefly, human cells were seeded onto 96-well plates at 20,000 cells/well. When they reached 80–90% confluence (after 24–48 h), cells were treated with escalating concentrations of peptides. After 48h incubation, cell viability was measured using a resazurin assay and CC50 (i.e., the concentrations causing 50% inhibition of cell viability) and determined using GraphPad® Prism 7 software. The experiments were performed in triplicate (n = 3).

[2] = Circular dichroism, secondary structure (Bestsel); format: physicochemical; conditions: CD in 20 mM SDS
Description: Circular dichroism of temporin SHa, [G10a]-SHa and newly synthesised second-generation analogs of [G10a]-SHa in 20 mM SDS are shown in Figure 2. In lipidic environments mimicked by SDS, peptides adopt an alpha helical structure due to their amphipathic nature. This structural feature is important for their antimicrobial activity, allowing for their insertion into bacterial membranes. The hydrophobic region of the peptide interacts with the hydrophobic portion of the lipid while the hydrophilic region remains exposed to the aqueous environment. The percentage of alpha helix, as well as the percentage of other secondary structures, was determined from CD data using Bestsel software (https://bestsel.elte.hu/index.php, (accessed on 22 June 2024)) (Table 3). Temporin-SHa (1) adopted a 49.5% α-helical structure, while its first-generation analog [G10a]-SHa (2) acquired a 82.4% alpha helical structure. The 84.6%, 88.7%, 4.7%, and 53.8% alpha helical structures were acquired for second-generation analogs 3, 4, 5, and 6, respectively.
The far-ultraviolet CD spectra were obtained using a JASCO J-810 spectropolarimeter (Jasco, Tokyo, Japan). In addition to this, the quartz cuvette of 10 mm path length was used. The temperature was maintained at 22 °C, and the output of the instrument was calibrated using D-(+)-10-camphorsulfonic acid. The peptides, which were present at a concentration of 1.0 mg/mL, were dissolved completely in 20 mM SDS at a concentration of 15 µM [21]. The instrument was set to record wavelengths ranging from 190 to 260 nm with a bandwidth of 2 nm. Ten consecutive scans (accumulations) were recorded for each spectrum at a rate of 50 nm/min, and the baseline was acquired under the same conditions.

human cancer cells = format: cell-based; conditions: mean of all human cancer cells tested; read-out: IC50, mean over cancer cells
Description: as §1

Structure (SMILES)	IC50 [1]	Antiparallel [2]	Helix (alpha helical structure) [2]	Others [2]	Parallel [2]	Turn [2]	IC50 (human cancer cells)
CC[C@H](C)[C@H](NC(=O)CNC(=O)[C@H](CO)NC(=O)[C@H](CC(C)C)NC(=O)[C@@H](N)Cc1ccccc1)C(=O)N[C@H](C(=O)NCC(=O)N[C@@H](CCSC)C(=O)N[C@@H](CC(C)C)C(=O)NCC(=O)N[C@@H](CCCCN)C(=O)N[C@@H](CC(C)C)C(=O)N[C@@H](Cc1ccccc1)C(N)=O)C(C)C [Temporin-SHa (1), H-Phe^1-Leu^2-Ser^3-Gly^4-IIe^5-Val^6-Gly^7-Met^8-Leu^9-Gly^10-Lys^11-Leu^12-Phe^13-NH2, reference compound] (H-FLSGIVGMLGKLF-NH2)	> 100 µM	0.00%	49.5%	49.80%	0.00%	0.70%	
CC[C@H](C)[C@H](NC(=O)CNC(=O)[C@H](CO)NC(=O)[C@H](CC(C)C)NC(=O)[C@@H](N)Cc1ccccc1)C(=O)N[C@H](C(=O)NCC(=O)N[C@@H](CCSC)C(=O)N[C@@H](CC(C)C)C(=O)N[C@H](C)C(=O)N[C@@H](CCCCN)C(=O)N[C@@H](CC(C)C)C(=O)N[C@@H](Cc1ccccc1)C(N)=O)C(C)C [[G10a]-SHa (2), H-Phe^1-Leu^2-Ser^3-Gly^4-IIe^5-Val^6-Gly^7-Met^8-Leu^9-D-Ala^10-Lys^11-Leu^12-Phe^13-NH2] (H-FLSGIVGML[dA]KLF-NH2)		17.60%	82.4%	0.00%	0.00%	0.00%	18.7 ± 9 µM
